Measured values reported in patent US20140179664A1, “Heterocyclyl Pyrimidine Analogues As JAK Inhibitors” (Cellzome Limited, priority 2011, published 2014).

What was measured:
Format in all cases: binding
JAK2 = target: T1, JAK2 (Homo sapiens, UniProt O60674); test: Kinobeads assay, JAK2; settings: mixed Molt4/Ramos lysate, read-out: Inhibition values (IC50) JAK2
T1 construct: endogenous in cells; host or cells: Molt4 (ATCC CRL-1582) and Ramos (ATCC CRL-1596), mixed lysate 1:2
Summary of the method: (§1)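 IC50s come from capture competition: compound at various concentrations versus an immobilized aminopyrido-pyrimidine ligand for kinases in 1:2 Molt4/Ramos lysate (10 mg/mL), 3 h in a cold room. Captured JAK-family kinases were measured by specific-antibody dot blot with Odyssey infrared detection.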

JAK3 = target: T2, JAK3 (Homo sapiens, UniProt P52333); test: Kinobeads assay, JAK3; settings: mixed Molt4/Ramos lysate, read-out: Inhibition values (IC50) JAK3
T2 construct: endogenous in cells; host or cells: Molt4 (ATCC CRL-1582) and Ramos (ATCC CRL-1596), mixed lysate 1:2
T2 sequence (P52333 1-1124): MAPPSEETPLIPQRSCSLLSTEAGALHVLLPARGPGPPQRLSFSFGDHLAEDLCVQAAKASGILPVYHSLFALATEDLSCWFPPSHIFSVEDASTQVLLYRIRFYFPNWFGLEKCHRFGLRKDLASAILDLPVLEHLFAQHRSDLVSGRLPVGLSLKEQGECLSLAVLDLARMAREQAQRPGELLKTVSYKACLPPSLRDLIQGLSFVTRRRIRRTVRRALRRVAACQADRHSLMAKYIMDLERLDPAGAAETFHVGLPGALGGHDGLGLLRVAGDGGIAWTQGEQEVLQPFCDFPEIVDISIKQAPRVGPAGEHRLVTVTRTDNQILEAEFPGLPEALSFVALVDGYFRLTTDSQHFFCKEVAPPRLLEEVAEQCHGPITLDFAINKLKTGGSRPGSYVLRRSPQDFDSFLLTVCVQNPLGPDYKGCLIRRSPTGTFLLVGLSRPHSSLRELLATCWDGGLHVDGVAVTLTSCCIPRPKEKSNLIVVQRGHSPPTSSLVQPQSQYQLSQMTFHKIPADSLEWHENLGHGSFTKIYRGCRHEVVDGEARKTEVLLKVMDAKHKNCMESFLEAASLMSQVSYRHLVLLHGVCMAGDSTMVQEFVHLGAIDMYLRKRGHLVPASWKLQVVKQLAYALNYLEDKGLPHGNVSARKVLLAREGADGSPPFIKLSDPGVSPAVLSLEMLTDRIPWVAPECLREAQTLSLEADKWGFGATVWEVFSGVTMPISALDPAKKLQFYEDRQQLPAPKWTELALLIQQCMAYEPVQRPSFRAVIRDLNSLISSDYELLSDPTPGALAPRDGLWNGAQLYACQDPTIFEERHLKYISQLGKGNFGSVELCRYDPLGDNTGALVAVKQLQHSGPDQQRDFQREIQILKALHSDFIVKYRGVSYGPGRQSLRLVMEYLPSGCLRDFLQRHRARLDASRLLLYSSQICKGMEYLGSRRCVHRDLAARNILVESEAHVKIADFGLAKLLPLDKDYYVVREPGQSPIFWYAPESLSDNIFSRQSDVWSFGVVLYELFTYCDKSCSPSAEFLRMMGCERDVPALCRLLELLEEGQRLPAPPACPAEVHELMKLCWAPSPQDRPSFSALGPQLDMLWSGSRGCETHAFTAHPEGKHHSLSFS
Summary of the method: as §1

TYK2 = target: T3, TYK2 (Homo sapiens, UniProt P29597); test: Kinobeads assay, TYK2; settings: mixed Molt4/Ramos lysate, read-out: Inhibition values (IC50) TYK2
T3 construct: endogenous in cells; host or cells: Molt4 (ATCC CRL-1582) and Ramos (ATCC CRL-1596), mixed lysate 1:2
Summary of the method: as §1

T3 sequence (P29597 whole entry): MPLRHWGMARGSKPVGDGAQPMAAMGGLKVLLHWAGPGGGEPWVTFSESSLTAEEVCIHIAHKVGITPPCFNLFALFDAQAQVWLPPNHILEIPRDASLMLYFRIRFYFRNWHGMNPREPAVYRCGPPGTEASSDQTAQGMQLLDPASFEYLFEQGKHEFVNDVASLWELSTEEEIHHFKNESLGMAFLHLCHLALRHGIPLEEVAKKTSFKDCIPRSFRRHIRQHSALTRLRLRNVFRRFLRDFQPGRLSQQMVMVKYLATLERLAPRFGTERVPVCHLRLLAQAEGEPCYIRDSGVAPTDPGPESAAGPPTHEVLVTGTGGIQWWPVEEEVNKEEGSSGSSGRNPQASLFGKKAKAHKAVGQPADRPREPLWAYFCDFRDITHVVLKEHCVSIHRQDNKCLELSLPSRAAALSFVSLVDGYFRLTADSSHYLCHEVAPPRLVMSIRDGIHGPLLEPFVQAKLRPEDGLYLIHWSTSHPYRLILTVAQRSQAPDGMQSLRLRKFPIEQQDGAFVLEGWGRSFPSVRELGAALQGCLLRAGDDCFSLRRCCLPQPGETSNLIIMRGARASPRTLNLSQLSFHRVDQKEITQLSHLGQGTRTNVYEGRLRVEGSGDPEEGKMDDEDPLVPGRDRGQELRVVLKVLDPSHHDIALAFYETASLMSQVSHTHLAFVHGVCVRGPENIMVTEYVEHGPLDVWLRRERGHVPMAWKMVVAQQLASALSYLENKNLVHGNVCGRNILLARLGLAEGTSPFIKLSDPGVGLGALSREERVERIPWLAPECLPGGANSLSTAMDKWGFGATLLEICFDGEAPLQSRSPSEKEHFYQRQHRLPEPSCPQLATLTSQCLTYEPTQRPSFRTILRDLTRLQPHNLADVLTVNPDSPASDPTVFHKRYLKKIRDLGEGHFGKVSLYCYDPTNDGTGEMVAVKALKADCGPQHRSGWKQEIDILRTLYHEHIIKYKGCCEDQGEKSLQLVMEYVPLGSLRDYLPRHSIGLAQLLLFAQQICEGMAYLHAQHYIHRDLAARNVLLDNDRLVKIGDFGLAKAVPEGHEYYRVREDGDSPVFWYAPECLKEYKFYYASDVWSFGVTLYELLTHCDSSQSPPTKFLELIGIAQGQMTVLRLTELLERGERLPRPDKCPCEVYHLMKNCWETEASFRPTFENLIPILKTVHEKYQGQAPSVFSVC
T1 sequence (O60674 whole entry): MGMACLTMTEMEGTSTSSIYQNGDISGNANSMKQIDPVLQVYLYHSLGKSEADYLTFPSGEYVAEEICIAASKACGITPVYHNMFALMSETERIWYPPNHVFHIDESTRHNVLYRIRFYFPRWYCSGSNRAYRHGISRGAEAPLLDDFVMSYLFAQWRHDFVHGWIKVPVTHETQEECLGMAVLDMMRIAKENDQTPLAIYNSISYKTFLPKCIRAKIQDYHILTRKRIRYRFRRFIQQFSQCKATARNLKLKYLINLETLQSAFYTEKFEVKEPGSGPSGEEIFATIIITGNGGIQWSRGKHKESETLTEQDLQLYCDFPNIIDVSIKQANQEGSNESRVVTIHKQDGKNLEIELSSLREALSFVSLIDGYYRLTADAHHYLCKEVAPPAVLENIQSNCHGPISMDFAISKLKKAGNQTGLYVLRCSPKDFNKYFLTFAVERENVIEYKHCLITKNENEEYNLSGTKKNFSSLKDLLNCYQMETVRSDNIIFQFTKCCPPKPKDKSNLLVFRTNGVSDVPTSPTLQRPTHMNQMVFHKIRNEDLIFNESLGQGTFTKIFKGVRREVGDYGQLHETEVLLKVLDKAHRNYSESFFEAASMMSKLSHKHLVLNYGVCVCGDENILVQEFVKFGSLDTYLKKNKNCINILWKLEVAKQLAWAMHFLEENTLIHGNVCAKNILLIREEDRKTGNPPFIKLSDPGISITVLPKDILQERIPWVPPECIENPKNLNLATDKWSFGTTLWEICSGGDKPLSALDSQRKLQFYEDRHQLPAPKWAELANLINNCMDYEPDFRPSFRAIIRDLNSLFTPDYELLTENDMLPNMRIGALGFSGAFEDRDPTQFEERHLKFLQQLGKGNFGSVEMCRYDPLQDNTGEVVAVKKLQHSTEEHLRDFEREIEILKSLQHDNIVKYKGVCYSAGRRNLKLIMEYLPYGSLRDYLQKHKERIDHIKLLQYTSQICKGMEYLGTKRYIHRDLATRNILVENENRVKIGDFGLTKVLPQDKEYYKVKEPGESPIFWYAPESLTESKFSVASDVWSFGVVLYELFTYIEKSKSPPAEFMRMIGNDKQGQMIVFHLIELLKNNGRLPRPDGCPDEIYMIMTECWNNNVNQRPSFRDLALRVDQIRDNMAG

Row | Structure (SMILES) | IC50 (JAK2) [nM] | IC50 (JAK3) [nM] | IC50 (TYK2) [nM]
1 | Cn1cc(Nc2ncc(Cl)c(N[C@H](CO)c3cccnc3)n2)cn1 [Compound 91] | 1000 to 10000 | < 100 | 100 to 1000
2 | OCCn1cc(Nc2ncc(Cl)c(NC(CO)c3cccc(Br)c3)n2)cn1 (stereo not drawn) [Compound 93] | 1000 to 10000 | 100 to 1000 | 100 to 1000
3 | Cn1cc(Nc2ncc(F)c(N[C@H](CO)c3ccccc3)n2)cn1 [Compound 3] | ≥ 10000 | 100 to 1000 | 1000 to 10000
4 | CN(C)CCNC(=O)Cn1cc(Nc2ncc(Cl)c(N[C@H](CO)c3ccccc3)n2)cn1 [Compound 89] | 1000 to 10000 | < 100 | 100 to 1000
5 | Cn1cc(Nc2ncc(Cl)c(N[C@H](CO)c3cccc(F)c3)n2)cn1 [Compound 85] | 100 to 1000 | < 100 | 100 to 1000
6 | NC(=O)Cn1cc(Nc2ncc(Cl)c(N[C@H](CO)c3cccc(F)c3)n2)cn1 [Compound 87] | 100 to 1000 | < 100 | 100 to 1000
7 | OC[C@@H](Nc1nc(Nc2cn[nH]c2)ncc1Cl)c1cccc(F)c1 [Compound 88] | 100 to 1000 | < 100 | 100 to 1000
8 | OCCn1cc(Nc2ncc(Cl)c(N[C@H](CO)c3cccnc3)n2)cn1 [Compound 92] | 1000 to 10000 | < 100 | 100 to 1000
9 | OCCn1cc(Nc2ncc(Cl)c(N[C@H](CO)c3cccc(F)c3)n2)cn1 [Compound 86] | 100 to 1000 | < 100 | 100 to 1000
10 | CN(C)CCCNC(=O)Cn1cc(Nc2ncc(Cl)c(N[C@H](CO)c3ccccc3)n2)cn1 [Compound 90] | 1000 to 10000 | < 100 | 100 to 1000
